Data: patent US20220387397A1, “COMPOUNDS AND COMPOSITIONS FOR TREATING CONDITIONS ASSOCIATED WITH NLRP ACTIVITY” (Novartis AG, priority 2018, published 2022)

System: IL-1β production in PMA-differentiated THP-1 cells
Test: IL-1β production in PMA-differentiated THP-1 cells stimulated with gramicidin (hTHP-1 assay, 2% bovine serum)
Type: cell-based, human
Details: hTHP-1 assay containing 2% bovine serum
Description: The following protocols are suitable for testing the activity of the compounds dislcosed herein. Bioassay 1:
IL-1β Production in PMA-Differentiated THP-1 Cells Stimulated with Gramicidin.
Cell culture-THP-1 cells were purchased from the American Type Culture Collection and sub-cultured according to instructions from the supplier. Prior to experiments, cells were cultured in RPMI 1640 containing 10% heat inactivated FBS, penicillin (100 units/ml) and streptomycin ([…]), and maintained in log phase prior to experimental setup. Prior to the experiment THP-1 were treated with PMA (Phorbol 12-myristate 13-acetate) ([…]) for 24 hours. The day of the experiment the media was removed and attaching cells were treated with trypsin for 2 minutes, cells were then collected, washed with PBS (phosphate buffer saline), spin down, resuspended in 2% heat inactivated FBS with RPMI at a concentration of 1×10^6 cells/ml, and 100 ul was plated in a 96 well plate. Cells were incubated with compounds for 1 hours and then stimulated with Gramicidin (5 μM) (Enzo) for 2 hours. Cell free supernatant was collected and the production of […] was evaluated by ELISA. Compounds were dissolved in dimethyl sulfoxide (DMSO) and added to the culture medium to achieve desired concentration (e.g. 100, 30, 10, 3, 1, 0.3 or 0.1 μM). A vehicle only control was run concurrently with each experiment. Final DMSO concentration was 1%.
THP-1 cells were purchased from the American Type Culture Collection and sub-cultured according to instructions from the supplier. Prior to experiments, cells were cultured in complete RPMI 1640 (containing 10% heat inactivated FBS, penicillin (100 units/ml) and streptomycin ([…])), and maintained in log phase prior to experimental setup. Prior to the experiment THP-1 were treated with PMA (Phorbol 12-myristate 13-acetate) (20 ng/ml) for 16-18 hours. On the day of the experiment the media was removed and adherent cells were detached with trypsin for 5 minutes. Cells were then harvested, washed with complete RPMI 1640, spun down, resuspended in RPMI 1640 (containing 2% heat inactivated FBS, penicillin (100 units/ml) and streptomycin ([…]). The cells were plated in a 384-well plate at a density of 50,000 cells/well (final assay volume […]). Compounds were dissolved in dimethyl sulfoxide (DMSO) and added to the culture medium to achieve desired concentration (e.g. 100, 33, 11, 3.7, 1.2, 0.41, 0.14, 0.046, 0.015, 0.0051, […]). Cells were incubated with compounds for 1 hour and then stimulated with gramicidin (5 μM) (Enzo) for 2 hours. Cell free supernatant was collected and the production of IL-1 was evaluated by HTRF (cisbio). A vehicle only control was run concurrently with each experiment. Final DMSO concentration was 0.38%.
Compounds tested with protocols 1 and 2 provided IC50 values that are within the variability of the assay.
Tables 13 and 14 show the biological activity of compounds in hTHP-1 assay containing 2% bovine serum: <1 μM=“++++”; ≥1 and <5 μM=“+++”; ≥5 and <15 μM=“++”; ≥15 and <60 μM=“+”.

[1] = Homo sapiens, THP-1, Table 14, by Final Target Number
[2] = Homo sapiens, THP-1, Table 14, given as a numeric bound
[3] = Homo sapiens, THP-1, Table 13, by Example #

`CC(C)c1cc(C#N)c(F)c(C(C)C)c1CC(=O)NS(=O)(=O)c1cnc(C(C)(O)CO)s1` (centres unmarked) [Compound 401] showed an IC50 [1] of 1 to 5 µM.

In the case of `CNC(=O)c1ccc(S(=O)(=O)NC(=O)Cc2c(C(C)C)cc(C#N)c(F)c2C(C)C)cc1O` [Compound 402], the IC50 [1] is reported as 15 to 60 µM.

With `CNS(=O)(=O)c1ccc(S(=O)(=O)NC(=O)Cc2c(C(C)C)cc(C#N)c(F)c2C(C)C)c(Cl)c1` [Compound 404] the IC50 [1] was < 1 µM.

With `CC(C)c1cc(C#N)c(F)c(C(C)C)c1CC(=O)NS(=O)(=O)c1cnc(C(C)(O)CO[C@@H]2O[C@H](CO)[C@@H](O)[C@H](O)[C@H]2O)s1` (some centres unmarked) [Compound 405] the IC50 [1] was 5 to 15 µM.

Work on `CC(C)c1cc(C#N)c(F)c(C(C)C)c1CC(=O)NS(=O)(=O)c1cnc(C(C)(C)O)nc1` [Compound 406] yielded an IC50 [1] of 5 to 15 µM.

`CC(C)c1cc(C#N)c(F)c(C(C)C)c1CC(=O)NS(=O)(=O)c1cccc(-n2cc(CNC(=O)OC(C)(C)C)nn2)c1` [Compound 407] was tested, and the IC50 [1] was 15 to 60 µM.

In the case of `CC(C)c1cc(C#N)c(F)c(C(C)C)c1CC(=O)NS(=O)(=O)c1cccc(NC(=O)CCc2cn(CCNC(=O)OC(C)(C)C)nn2)c1` [Compound 408], the IC50 [2] is reported as > 30 µM.

Molecule `CC(C)c1cc(C#N)cc(C(C)C)c1CC(=O)NS(=O)(=O)c1cnc(C(C)(C)O)nc1` [Compound 409] has an IC50 [1] of 5 to 15 µM.

`CC(C)c1cc(F)cc(C(C)C)c1CC(=O)NS(=O)(=O)c1ccc([C@@H](C)N(C)C(=O)CCc2cn(CCOCCOCCOCCNC(=O)CCCC[C@@H]3SC[C@@H]4NC(=O)N[C@@H]43)nn2)cc1` [Compound 410] was tested, and the IC50 [2] was > 30 µM.

`CC(C)c1cc(F)cc(C(C)C)c1CC(=O)NS(=O)(=O)c1ccc([C@H](C)N(C)C(=O)CCc2cn(CCOCCOCCOCCNC(=O)CCCC[C@H]3SC[C@@H]4NC(=O)N[C@@H]43)nn2)cc1` [Compound 411] was tested, and the IC50 [2] was > 30 µM.

In the case of `CC(C)c1cc(C2(C(F)(F)F)N=N2)cc(C(C)C)c1CC(=O)NS(=O)(=O)c1ccc(CN(C)C(=O)CCCN(C)C(=O)CCOCCOCCOCCOCCNC(=O)CCCC[C@H]2SC[C@@H]3NC(=O)N[C@@H]32)cc1` [Compound 412], the IC50 [2] is reported as > 30 µM.

`CC(C)c1cc(F)cc(C(C)C)c1CC(=O)NS(=O)(=O)c1ccc(C(C)N(C)C(=O)CCc2cn(CCOCCOCCOCCNC(=O)CCCC[C@@H]3SC[C@@H]4NC(=O)N[C@@H]43)nn2)cc1` (some centres unmarked) [Compound 415] was tested, and the IC50 [2] was > 30 µM.

For `CC(C)c1cc(C#N)c(F)c(C(C)C)c1CC(=O)NS(=O)(=O)c1cc(C(C)(C)O)no1` [Compound 416], the IC50 [1] was < 1 µM.

In the case of `CC(C)(O)c1csc(S(=O)(=O)NC(=O)Cc2c3c(cc4c2CCC4)CCC3)c1` [Example 7, 2-(1,2,3,5,6,7-hexahydros-indacen-4-yl)-N-(4-(2-hydroxypropan-2-yl)thiophen-2-ylsulfonyl)acetamide], the IC50 [3] is reported as 5 to 15 µM.

In the case of `CC(=O)c1ccc(F)c(S(=O)(=O)NC(=O)Cc2c(C(C)C)cc(F)cc2C(C)C)c1` [Example 55], the IC50 (Table 13, by Example #) is reported as 1 to 5 µM.

Work on `CCc1cc(C(C)C)c(CC(=O)NS(=O)(=O)c2ccc(CN(C)C)cc2)c(C(C)C)c1` [Example 97, N-((4-((dimethylamino)methyl)phenyl)sulfonyl)-2-(4-ethyl-2,6-diisopropylphenyl)acetamide] yielded an IC50 [3] of 5 to 15 µM.

In the case of “N-(4-pentafluorophenylsulfonyl)-2-(4-fluoro-2,6-diisopropylphenyl)acetamide [Example 39]”, the IC50 (Table 13, by Example #) is reported as 15 to 60 µM.
